Source: publication PMC10609173, “Antiplasmodial and Antileishmanial Activities of a New Limonoid and Other Constituents from the Stem Bark of Khaya senegalensis” (Molecules, 2023)
In brackets after ≈: the same amount, converted by molar mass. Read-outs that look alike come from different tables or passages of the source.

Tests used:
[1] = system: promastigote form of Leishmania donovani (1S(MHOM/SD/62/1S)); experiment: Antileishmanial resazurin-based assay on promastigotes; type: cell-based; settings: for IC50: Leishmania donovani, L. donovani promastigotes, 28 °C, read-out: Antileishmanial Activity IC50 ± SD; for Antileishmanial Selectivity (SI): SI = CC50 against macrophages/IC50 against promastigotes
Protocol: A T-75 cm^2 cell culture flask was filled with complete Medium 199 [M199 supplemented with 10% heat-inactivated fetal bovine serum (HIFBS) and 100 IU/mL penicillin/streptomycin (Sigma, Darmstadt, Germany)] and used to grow the promastigote forms of Leishmania donovani. Every 72 h, flasks were subcultured and incubated at 28 °C.
The resazurin-based assay was used to evaluate the antileishmanial activity of the extract (100 μg/mL–0.16 μg/mL), major fractions (100 μg/mL–0.16 μg/mL), and isolated compounds (50 μg/mL–0.08 μg/mL) against the promastigote form of Leishmania donovani. Briefly, 10 μL of inhibitors at various triplicate doses (as prescribed for the antiplasmodial assay) were added to 90 μL of promastigotes from a logarithmic phase culture at a density of 4.10^5 parasites/mL. The plates were incubated for 28 h at 28 °C, and 10 μL of resazurin solution (Sigma, Darmstadt, Germany) was added. Amphotericin B (Sigma, Darmstadt, Germany) (10 μg–0.016 μg/mL) and 0.1% DMSO-treated wells were used as the […], respectively. After a further 44 h of incubation, plates were read using a Magelan Infinite M200 fluorescence plate reader (Tecan, Männedorf, Switzerland) at excitation and emission wavelengths of 530 and 590 nm, respectively.
(§1) The resulting fluorescence readings were used to calculate the growth inhibition percentages relative to the negative control for each sample and for each of the tested doses. GraphPad Prism 8.0 software was used to generate concentration-response curves from the nonlinear regression fit to determine the median inhibitory or cytotoxic concentration (IC50/CC50). The resistance index (RI) for antiplasmodial tests was calculated as the ratio between the samples’ IC50 values for the chloroquine-sensitive strain 3D7 and the multiresistant strain Dd2 [69]. Inhibitors with an RI value below 1 were considered to act preferentially on the resistant strain. Based on each inhibitor’s antiparasitic efficacy (IC50) and cell toxicity (CC50), selectivity indices (SI) were calculated [SI = CC50 (RAW)/IC50 (Parasites)]. Samples were classified as poorly toxic to RAW cells if their SI values were greater than 10 [70].

[2] = Cytotoxicity assay (resazurin) on RAW 264.7 macrophages; type: cell-based, murine; settings: mouse
Protocol: The murine macrophage RAW 264.7 cell line was grown in DMEM (Dulbecco’s modified Eagle’s medium) containing 1% penicillin-streptomycin, 1% nonessential amino acids (NEA), and 10% HIFBS at 37 °C, and 5% CO2 in a humidified environment. A reverse Etaluma fluorescence microscope was used to view the cells every day, and the growth media was replaced every 72 h. At 80% confluence, cells were isolated using 0.25% Trypsine-EDTA (Gibco, MT, USA).
The murine macrophages, RAW 264.7 cells, were plated into a 96-well cell culture treated flat-bottomed plate ([…], Inc., Newton, NC 28658, USA) at a density of 10 × 10^4 cells/100 μL/well and incubated overnight to enable cell adhesion. A fresh complete medium containing serially diluted concentrations of crude extract, fractions, and compounds was used to replace the previous medium. The final assay concentration values for extracts/fractions and compounds varied from 400 μg/mL to 0.8 μg/mL and 100–0.16 μg/mL, respectively. Podophyllotoxin (Sigma-Aldrich, Munich, Germany) was used as a positive control at a maximum dose of 10 μM. After 48 h of incubation, 10 μL of resazurin solution (0.15 mg/mL dissolved in PBS) was added to each well, and the plates were incubated for an additional 4 h. Fluorescence data were finally recorded with a Magellan Infinite M200 plate reader (Tecan, Germany) at excitation and emission wavelengths of 530 nm and 590 nm, respectively.
as §1

[3] = system: chloroquine-sensitive 3D7 strain of Plasmodium falciparum (Pf3D7); experiment: Antiplasmodial SYBR Green I fluorescence assay, Pf3D7 strain; type: cell-based; settings: 3D7, Pf3D7 strain, ring stage, 72 h, read-out: Antiplasmodial Activity Pf3D7 IC50 ± SD
Text: (§2) The parasite strains used in this study are continuously cultured at the Antimicrobial and Biocontrol Agents Unit of the University of Yaoundé I, and were graciously provided by BEI Resources (https://www.beiresources.org (accessed on 16 February 2019)). They comprise the Leishmania donovani strain (1S(MHOM/SD/62/1S), the multiresistant (PfDd2), and the chloroquine-sensitive (Pf3D7-(MRA-102)) strains of Plasmodium falciparum. RPMI 1640 media supplemented with 0.2% sodium bicarbonate (Sigma Aldrich, Billings, MT, USA), 0.5% Albumax II (Gibco), 1% hypoxanthine 100X (Gibco, Billings, MT, USA), 25 mM HEPES, and 0.04% gentamicin (Sigma Aldrich) was used to sustain P. falciparum strains in sterile petri dishes. Fresh red blood cells from healthy O^+ human volunteers were also added to the medium. These cells were suspended at 4% hematocrit (v/v) and incubated at 37 °C in a humidified environment with 5% CO2. To regularly maintain the culture, fresh medium was added to the culture every day. Thin blood smears stained with 10% Giemsa were used to microscopically monitor cell-cycle transition and parasitemia under immersion oil.
(§3) The antiplasmodial efficacy of the samples was evaluated using the SYBR Green I-based fluorescence assay, as previously reported by Smilkstein et al., on a sorbitol-synchronized ring stage culture of Plasmodium falciparum (PfDd2 and Pf3D7 strains). The test relies on the development of intense fluorescence following SYBR green binding to the exposed DNA found in wells containing healthy cells. Ninety microliters of parasites prepared with 1% hematocrit and 2% parasitemia and 10 μL of test sample extracts, fractions, isolated chemicals, chloroquine, and artemisinin were each added in triplicate into wells of a flat-bottomed microplate. The final test concentration values for the samples varied from 50 μg/mL-0.08 μg/mL and 100 μg/mL-0.16 μg/mL for extract/fractions. Following a 72 h incubation at 37 °C, 100 μL of SYBR Green I solution prepared with lysis buffer (0.2 μL of 10,000 SYBR Green I per mL of lysis buffer) made of EDTA (5 mM), Tris (20 mM; pH 7.5), Triton X-100 (0.08%; v/v), and saponin (0.008%; m/v) was added to each well. Fluorescence measurements were taken using an Infinite M200 microplate reader (Tecan, MT, USA) at emission and excitation wavelengths of 538 and 485 nm, respectively.
as §1

[4] = system: multidrug-resistant Dd2 strain of Plasmodium falciparum (PfDd2); experiment: Antiplasmodial SYBR Green I fluorescence assay, PfDd2 strain; type: cell-based; settings: Plasmodium falciparum
Text: as §2, §3, §1

[5] = system: chloroquine-sensitive/sulfadoxine-resistant Pf3D7 strain; set-up: method as in PMID 36837917; settings: in vitro; isolated from Trichilia monadelpha; cited from earlier work
[6] = system: amastigote forms of Leishmania donovani; set-up: method as in doi:10.1076/phbi.39.4.284.5921; settings: isolated from Khaya senegalensis; cited from earlier work
[7] = system: clinical isolate of P. falciparum; set-up: method as in doi:10.1080/13880200601009123; settings: cited from earlier work
[8] = system: Leishmania amazonensis; set-up: method as in PMID 21343887; settings: cited from earlier work
[9] = system: promastigote; set-up: method as in PMID 15070160; settings: from Pourouma guianensis; cited from earlier work
[10] = system: amastigote; set-up: method as in PMID 15070160; settings: from Pourouma guianensis; cited from earlier work
[11] = DD2, 72 h, read-out: Antiplasmodial Activity PfDd2 IC50 ± SD, PfDd2 strain, ring stage, 72 h

Row | SMILES | IC50 [1] [µg/mL] | CC50 at 48 h [2] [µg/mL] | IC50 [3] [µg/mL] | Antileishmanial Selectivity (SI) [1] | IC50 against amastigote forms of Leishmania donovani [6] [µg/mL] | IC50 [4, 11] [µg/mL] | also measured
1 | C[C@@H]1[C@H](O)[C@@H](C)/C=C/C=C/C=C/C=C/C=C/C=C/C=C/[C@H](O[C@@H]2O[C@H](C)[C@@H](O)[C@H](N)[C@@H]2O)C[C@@H]2O[C@](O)(C[C@@H](O)C[C@@H](O)[C@H](O)CC[C@@H](O)C[C@@H](O)CC(=O)O[C@H]1C)C[C@H](O)[C@H]2C(=O)O [Amphotericin B, amphotericin B, reference compound] | 3.14 ± 0.46 (≈ 3.4 µM) |  |  |  |  |  | 
2 | COC(=O)[C@H](O)[C@@H]1[C@@]2(C)[C@H]3CC[C@@]4(C)[C@H](c5ccoc5)OC(=O)C[C@@]45O[C@H]4C(=O)[C@@]1(C)C[C@]2(OC(C)=O)[C@@H]4[C@@]35O [Khayanolide E (6), khayanolide E] | 81.73 ± 0.12 (≈ 146 µM) | 81.6 (≈ 146 µM) | 56.98 ± 0.08 (≈ 102 µM) | 0.99 |  |  | IC50 ([4]; DD2, PfDd2 strain, ring stage, 72 h, read-out: Antiplasmodial Activity PfDd2 IC50 ± SD): 14.03 ± 0.06 µg/mL (≈ 25.1 µM); IC50 against Pf3D7 [5]: 1.68 µg/mL (≈ 3.01 µM)
3 | Oc1cc(O)c2c(c1)O[C@H](c1ccc(O)c(O)c1)[C@@H](O)[C@@H]2c1c(O)cc(O)c2c1O[C@H](c1ccc(O)c(O)c1)[C@@H](O)C2 [catechin-(4a,8)-catechin] |  |  |  |  | 3.98 |  | 
4 | Oc1cc(O)c2c(c1)O[C@H](c1ccc(O)c(O)c1)[C@@H](O)[C@@H]2c1c(O)cc2c(c1O)C[C@H](O)[C@@H](c1ccc(O)c(O)c1)O2 [catechin-(4a,6)-catechin] |  |  |  |  | 3.85 |  | 
5 | CC1(C)CC[C@]2(C(=O)O)CC[C@]3(C)C(=CC[C@@H]4[C@@]5(C)CC[C@H](O)C(C)(C)[C@@H]5CC[C@]43C)[C@@H]2C1 [Oleanolic acid (7), oleanolic acid] | 30.6 ± 0.67 (≈ 67.1 µM) |  | 93.58 ± 0.92 (≈ 205 µM) | ˃13.06 |  | 43.6 ± 0.73 (≈ 95.4 µM) | CC50 at 48 h ([2]; RAW 264.7 macrophage cells, RAW 264.7 macrophages, 48 h incubation, resazurin, read-out: Cytotoxicity on RAW 264.7 Cells CC50 ± SD): > 400 µg/mL; IC50, growth of clinical isolate of P. falciparum [7]: 15.2 µg/mL; IC50, growth of Leishmania amazonensis [8]: 439.5 µg/mL; IC50, antipromastigote effect [9]: 10 µg/mL (≈ 21.9 µM); IC50, antiamastigote inhibitory activity [10]: 27 µg/mL (≈ 59.1 µM)
6 | C=C(C)[C@@H]1CC[C@]2(C(=O)O)CC[C@]3(C)[C@H](CC[C@@H]4[C@@]5(C)C[C@@H](O)[C@H](O)C(C)(C)[C@@H]5CC[C@]43C)[C@@H]12 [Alphitolic acid (3), alphitolic acid] | 17.1 ± 0.9 (≈ 36.2 µM) | 35.8 (≈ 75.6 µM) | 146.77 ± 0.13 (≈ 310 µM) | 2.09 |  | > 200 | 
